The values below come from US8722849B2, “Polypeptides” (Novo Nordisk A/S, priority 2011, dated 2014).

The subject of this test is food intake. Put plainly: Assay (I) efficacy testing on appetite (food intake), ad libitum fed rat model. In kind it is in vivo, Sprague Dawley (SD) rats. As to conditions: 3 nmol/kg. The method in brief:
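Food consumption was logged per animal every hour up to 7 h and again at 24 h (occasionally 48 h) after a single 0.01–3 mg/kg dose, given sc, po or ip at dark-phase onset. Ad libitum fed SD rats, 200–250 g, kept on inverted light/dark cycle; vehicle group included, outliers removed by Grubbs test.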

Each structure is given as a SMILES string. Starred links: 1 amine or outer side, 2 acyl side, 3 side chain; linkers in the order of their positions; H or OH if unused. Positions of bridges follow the written chain, without caps; N, C: chain ends. Residues, ends and D or L forms follow the SMILES beside them. Groups on a side chain read outwards from the residue. *: point of attachment. C20 diacid = O=C(O)CCCCCCCCCCCCCCCCCCC(=O)*; C18 diacid = O=C(O)CCCCCCCCCCCCCCCCC(=O)*; γGlu = O=C(O)[C@H](CCC(=O)[*:2])N[*:1]; AEEA = NCCOCCOCC(=O)O

As to `CC[C@H](C)[C@H](NC(=O)[C@@H]1CCCN1C(=O)CNC(=O)[C@H](Cc1ccccc1)NC(=O)[C@H](CC(N)=O)NC(=O)[C@H](CC(N)=O)NC(=O)[C@H](CO)NC(=O)[C@H](CO)NC(=O)[C@H](Cc1c[nH]cn1)NC(=O)[C@H](Cc1c[nH]cn1)NC(=O)[C@H](CC(C)C)NC(=O)[C@H](Cc1ccccc1)NC(=O)[C@H](CCC(=O)O)NC(=O)[C@H](C)NC(=O)[C@H](CC(C)C)NC(=O)[C@H](CCCNC(=N)N)NC(=O)[C@H](CCC(N)=O)NC(=O)[C@@H](NC(=O)[C@H](C)NC(=O)[C@@H]1CSSC[C@H](NC(=O)[C@H](CCCNC(=N)N)NC(=O)CNC(=O)CC[C@H](NC(=O)CCCCCCCCCCCCCCCCCCC(=O)O)C(=O)O)C(=O)N[C@@H](CC(N)=O)C(=O)N[C@@H]([C@@H](C)O)C(=O)N[C@@H](C)C(=O)N[C@@H]([C@@H](C)O)C(=O)N1)[C@@H](C)O)C(=O)N[C@@H](CC(C)C)C(=O)N1CCC[C@H]1C(=O)N1CCC[C@H]1C(=O)N[C@H](C(=O)N[C@@H](CC(N)=O)C(=O)N[C@H](C(=O)NCC(=O)N[C@@H](CO)C(=O)N[C@@H](CC(N)=O)C(=O)N[C@H](C(=O)N1CCC[C@H]1C(N)=O)[C@@H](C)O)C(C)C)[C@@H](C)O` [Example 101, N-alpha-[(S)-4-Carboxy-4-(19-carboxynonadecanoylamino)butyryl]-Gly-[Arg1,Glu14,His17,Pro37]-pramlintide] ({C20 diacid-γGlu}-GRCNTATCATQRLAEFLHHSSNNFGPILPPTNVGSNTP-NH2; disulfide 3-8 (inferred)), the “Food intake reduction 0-24 h 3 nmol/kg (%)” value is recorded as 70% and the “Food intake reduction 24-48 h 3 nmol/kg (%)” value came out at 90%.

Consider `CC[C@H](C)[C@H](NC(=O)[C@@H]1CCCN1C(=O)CNC(=O)[C@H](Cc1ccccc1)NC(=O)[C@H](CC(N)=O)NC(=O)[C@H](CC(N)=O)NC(=O)[C@H](CO)NC(=O)[C@H](CO)NC(=O)[C@H](Cc1c[nH]cn1)NC(=O)[C@H](CCCNC(=N)N)NC(=O)[C@H](CC(C)C)NC(=O)[C@H](Cc1ccccc1)NC(=O)[C@H](CCC(=O)O)NC(=O)[C@H](C)NC(=O)[C@H](CC(C)C)NC(=O)[C@H](CCCNC(=N)N)NC(=O)[C@H](CCC(N)=O)NC(=O)[C@@H](NC(=O)[C@H](C)NC(=O)[C@@H]1CSSC[C@H](NC(=O)[C@H](CCCCN)NC(=O)CC[C@H](NC(=O)CCCCCCCCCCCCCCCCCCC(=O)O)C(=O)O)C(=O)N[C@@H](CC(N)=O)C(=O)N[C@@H]([C@@H](C)O)C(=O)N[C@@H](C)C(=O)N[C@@H]([C@@H](C)O)C(=O)N1)[C@@H](C)O)C(=O)N[C@@H](CC(C)C)C(=O)N1CCC[C@H]1C(=O)N1CCC[C@H]1C(=O)N[C@H](C(=O)N[C@@H](CC(N)=O)C(=O)N[C@H](C(=O)NCC(=O)N[C@@H](CO)C(=O)N[C@@H](CC(N)=O)C(=O)N[C@H](C(=O)N[C@@H](Cc1ccc(O)cc1)C(N)=O)[C@@H](C)O)C(C)C)[C@@H](C)O` [Example 50, N-alpha-[(S)-4-Carboxy-4-(19-carboxynonadecanoylamino)butyryl]-[Glu14,Arg17]-pramlintide] ({C20 diacid-γGlu}-KCNTATCATQRLAEFLRHSSNNFGPILPPTNVGSNTY-NH2; disulfide 2-7 (inferred)), for which the “Food intake reduction 0-24 h 3 nmol/kg (%)” value was 30% and the “Food intake reduction 24-48 h 3 nmol/kg (%)” value stood at 8%.

Regarding `CC[C@H](C)[C@H](NC(=O)[C@@H]1CCCN1C(=O)CNC(=O)[C@H](Cc1ccccc1)NC(=O)[C@H](CC(N)=O)NC(=O)[C@H](CC(N)=O)NC(=O)[C@H](CO)NC(=O)[C@H](CO)NC(=O)[C@H](Cc1c[nH]cn1)NC(=O)[C@H](CCCNC(=N)N)NC(=O)[C@H](CC(C)C)NC(=O)[C@H](Cc1ccccc1)NC(=O)[C@H](CCC(=O)O)NC(=O)[C@H](C)NC(=O)[C@H](CC(C)C)NC(=O)[C@H](CCCNC(=N)N)NC(=O)[C@H](CCC(N)=O)NC(=O)[C@@H](NC(=O)[C@H](C)NC(=O)[C@@H]1CSSC[C@H](NC(=O)[C@H](CCCCN)NC(=O)[C@H](Cc2c[nH]cn2)NC(=O)CC[C@H](NC(=O)CCCCCCCCCCCCCCCCC(=O)O)C(=O)O)C(=O)N[C@@H](CC(N)=O)C(=O)N[C@@H]([C@@H](C)O)C(=O)N[C@@H](C)C(=O)N[C@@H]([C@@H](C)O)C(=O)N1)[C@@H](C)O)C(=O)N[C@@H](CC(C)C)C(=O)N1CCC[C@H]1C(=O)N1CCC[C@H]1C(=O)N[C@H](C(=O)N[C@@H](CC(N)=O)C(=O)N[C@H](C(=O)NCC(=O)N[C@@H](CO)C(=O)N[C@@H](Cc1c[nH]cn1)C(=O)N[C@H](C(=O)N[C@@H](Cc1ccc(O)cc1)C(N)=O)[C@@H](C)O)C(C)C)[C@@H](C)O` [Example 71, N-alpha-[(S)-4-Carboxy-4-(17-carboxyheptadecanoylamino)butyryl]-His-[Glu14,Arg17,His35]-pramlintide] ({C18 diacid-γGlu}-HKCNTATCATQRLAEFLRHSSNNFGPILPPTNVGSHTY-NH2; disulfide 3-8 (inferred); C-terminus assumed), the “Food intake reduction 0-24 h 3 nmol/kg (%)” value came to 10% and the “Food intake reduction 24-48 h 3 nmol/kg (%)” value is recorded as 0%.

Consider `CC[C@H](C)[C@H](NC(=O)[C@H](CCCCNC(=O)COCCOCCNC(=O)COCCOCCNC(=O)CC[C@H](NC(=O)CCCCCCCCCCCCCCCCC(=O)O)C(=O)O)NC(=O)CNC(=O)[C@H](Cc1ccccc1)NC(=O)[C@H](CC(N)=O)NC(=O)[C@H](CC(N)=O)NC(=O)[C@H](CO)NC(=O)[C@H](CO)NC(=O)[C@H](Cc1c[nH]cn1)NC(=O)[C@H](Cc1c[nH]cn1)NC(=O)[C@H](CC(C)C)NC(=O)[C@H](Cc1ccccc1)NC(=O)[C@H](CCC(=O)O)NC(=O)[C@H](C)NC(=O)[C@H](CC(C)C)NC(=O)[C@H](CCCNC(=N)N)NC(=O)[C@H](CCC(N)=O)NC(=O)[C@@H](NC(=O)[C@H](C)NC(=O)[C@@H]1CSSC[C@H](NC(=O)[C@@H](N)CCCCN)C(=O)N[C@@H](CC(N)=O)C(=O)N[C@@H]([C@@H](C)O)C(=O)N[C@@H](C)C(=O)N[C@@H]([C@@H](C)O)C(=O)N1)[C@@H](C)O)C(=O)N[C@@H](CC(C)C)C(=O)N1CCC[C@H]1C(=O)N1CCC[C@H]1C(=O)N[C@H](C(=O)N[C@@H](CC(N)=O)C(=O)N[C@H](C(=O)NCC(=O)N[C@@H](CO)C(=O)N[C@@H](CC(N)=O)C(=O)N[C@H](C(=O)N[C@@H](Cc1ccc(O)cc1)C(N)=O)[C@@H](C)O)C(C)C)[C@@H](C)O` [Example 73, N-epsilon25-[2-(2-{2-[2-(2-{2-[(S)-4-Carboxy-4-(17-carboxyheptadecanoylamino)butyrylamino]ethoxy}ethoxy)acetylamino]ethoxy}ethoxy)acetyl]-[Glu14,His17,Lys25]-pramlintide] (H-KCNTATCATQRLAEFLHHSSNNFGK([AEEA-AEEA-γGlu-C18 diacid])ILPPTNVGSNTY-NH2; disulfide 2-7 (inferred); N-terminus and C-terminus assumed), for which the “Food intake reduction 0-24 h 3 nmol/kg (%)” value is recorded as 29% and the “Food intake reduction 24-48 h 3 nmol/kg (%)” value was found to be 2%.

With `CC[C@H](C)[C@H](NC(=O)[C@@H]1CCCN1C(=O)CNC(=O)[C@H](Cc1ccccc1)NC(=O)[C@H](CC(N)=O)NC(=O)[C@H](CC(N)=O)NC(=O)[C@H](CO)NC(=O)[C@H](CO)NC(=O)[C@H](Cc1c[nH]cn1)NC(=O)[C@H](Cc1c[nH]cn1)NC(=O)[C@H](CC(C)C)NC(=O)[C@H](Cc1ccccc1)NC(=O)[C@H](CCC(=O)O)NC(=O)[C@H](C)NC(=O)[C@H](CC(C)C)NC(=O)[C@H](CCCNC(=N)N)NC(=O)[C@H](CCC(N)=O)NC(=O)[C@@H](NC(=O)[C@H](C)NC(=O)[C@@H]1CSSC[C@H](NC(=O)[C@H](Cc2c[nH]cn2)NC(=O)CC[C@H](NC(=O)CCCCCCCCCCCCCCCCCCC(=O)O)C(=O)O)C(=O)N[C@@H](CC(N)=O)C(=O)N[C@@H]([C@@H](C)O)C(=O)N[C@@H](C)C(=O)N[C@@H]([C@@H](C)O)C(=O)N1)[C@@H](C)O)C(=O)N[C@@H](CC(C)C)C(=O)N1CCC[C@H]1C(=O)N1CCC[C@H]1C(=O)N[C@H](C(=O)N[C@@H](CC(N)=O)C(=O)N[C@H](C(=O)NCC(=O)N[C@@H](CO)C(=O)N[C@@H](CC(N)=O)C(=O)N[C@H](C(=O)N[C@@H](Cc1ccc(O)cc1)C(N)=O)[C@@H](C)O)C(C)C)[C@@H](C)O` [Example 18, N-alpha-[(S)-4-Carboxy-4-(19-carboxynonadecanoylamino)butyryl]-[His1,Glu14,His17]-pramlintide] ({C20 diacid-γGlu}-HCNTATCATQRLAEFLHHSSNNFGPILPPTNVGSNTY-NH2; disulfide 2-7 (inferred); C-terminus assumed), the “Food intake reduction 0-24 h 3 nmol/kg (%)” value is 40% and the “Food intake reduction 24-48 h 3 nmol/kg (%)” value is on record as 32%.

Regarding `CC[C@H](C)[C@H](NC(=O)[C@@H]1CCCN1C(=O)CNC(=O)[C@H](Cc1ccccc1)NC(=O)[C@H](CC(N)=O)NC(=O)[C@H](CCC(N)=O)NC(=O)[C@H](CO)NC(=O)[C@H](CO)NC(=O)[C@H](Cc1c[nH]cn1)NC(=O)[C@H](Cc1c[nH]cn1)NC(=O)[C@H](CC(C)C)NC(=O)[C@H](Cc1ccccc1)NC(=O)[C@H](CCC(=O)O)NC(=O)[C@H](C)NC(=O)[C@H](CC(C)C)NC(=O)[C@H](CCCNC(=N)N)NC(=O)[C@H](CCC(N)=O)NC(=O)[C@@H](NC(=O)[C@H](C)NC(=O)[C@@H]1CSSC[C@H](NC(=O)[C@H](CCCCN)NC(=O)CC[C@H](NC(=O)CCCCCCCCCCCCCCCCCCC(=O)O)C(=O)O)C(=O)N[C@@H](CC(N)=O)C(=O)N[C@@H]([C@@H](C)O)C(=O)N[C@@H](C)C(=O)N[C@@H]([C@@H](C)O)C(=O)N1)[C@@H](C)O)C(=O)N[C@@H](CC(C)C)C(=O)N1CCC[C@H]1C(=O)N1CCC[C@H]1C(=O)N[C@H](C(=O)N[C@@H](CC(N)=O)C(=O)N[C@H](C(=O)NCC(=O)N[C@@H](CO)C(=O)N[C@@H](Cc1c[nH]cn1)C(=O)N[C@H](C(=O)N[C@@H](Cc1ccc(O)cc1)C(N)=O)[C@@H](C)O)C(C)C)[C@@H](C)O` [Example 117, N-alpha-[(S)-4-Carboxy-4-(19-carboxynonadecanoylamino)butyryl]-[Glu14,His17,Gln21,His35)-pramlintide] ({C20 diacid-γGlu}-KCNTATCATQRLAEFLHHSSQNFGPILPPTNVGSHTY-NH2; disulfide 2-7 (inferred); C-terminus assumed), the “Food intake reduction 0-24 h 3 nmol/kg (%)” value is 50% and the “Food intake reduction 24-48 h 3 nmol/kg (%)” value is recorded as 35%.
